Assay results as given in ChEMBL document CHEMBL3045530, “Synthesis, antimycobacterial, antiviral, antimicrobial activities, and QSAR studies of isonicotinic acid-1-(substituted phenyl)-ethylidene/cycloheptylidene hydrazides” (Med Chem Res, 2012).
In brackets after ≈: the same amount, converted by molar mass.

What was measured:
[1] = test system: Mammalian orthoreovirus 1; experiment: Antiviral activity against Mammalian orthoreovirus 1 infected Vero cells assessed as inhibition of virus-induced cytopathicity by microscopy; type: functional, organism-based; conditions: Mammalian orthoreovirus 1, Vero
[2] = Cytotoxicity against Chlorocebus aethiops (African green monkey) Vero cells assessed as alteration in cell morphology by microscopy; type: cell-based; conditions: chlorocebus sabaeus, read-out: MTC
[3] = test system: Aspergillus niger; experiment: Antimicrobial activity against Aspergillus niger after 7 days by tube dilution method; type: functional
[4] = test system: HEL; experiment: Cytostatic against Homo sapiens (human) HEL cells assessed as alteration in cell morphology by microscopy; type: ADME, cell-based
[5] = test system: Sindbis virus; experiment: Antiviral activity against Sindbis virus infected Vero cells assessed as inhibition of virus-induced cytopathicity; type: functional, organism-based
[6] = test system: Coxsackievirus B4; experiment: Antiviral activity against Human coxsackievirus B4 infected Vero cells assessed as inhibition of virus-induced cytopathicity; type: functional, organism-based; conditions: Enterovirus B
[7] = test system: Human herpesvirus 5 strain AD169; experiment: Antiviral activity against Human herpesvirus 5 strain AD169 Davis infected human HEL cells assessed as inhibition of virus-induced cytopathicity by microscopy; type: functional, organism-based; conditions: Human betaherpesvirus 5, Davis
[8] = test system: Punta Toro virus; experiment: Antiviral activity against Punta Toro virus infected Vero cells assessed as inhibition of virus-induced cytopathicity; type: functional, organism-based
[9] = test system: Staphylococcus aureus; experiment: Antimicrobial activity against Staphylococcus aureus after 24 hr by tube dilution method; type: functional
[10] = test system: Coxsackievirus B4; experiment: Antiviral activity against Human coxsackievirus B4 infected human HeLa cells assessed as inhibition of virus-induced cytopathicity by microscopy; type: functional, organism-based; conditions: Enterovirus B
[11] = test system: Candida albicans; experiment: Antimicrobial activity against Candida albicans after 48 hr by tube dilution method; type: functional
[12] = Cytotoxicity against Homo sapiens (human) HeLa cells assessed as alteration in cell morphology by microscopy; type: cell-based; conditions: read-out: MTC
[13] = test system: Human respirovirus 3; experiment: Antiviral activity against Human parainfluenza virus 3 infected Vero cells assessed as inhibition of virus-induced cytopathicity by microscopy; type: functional, organism-based; conditions: Human respirovirus 3, Vero
[14] = test system: Human alphaherpesvirus 1; experiment: Antiviral activity against TK(-) aciclovir-resistant Human herpesvirus 1 strain KOS infected in human HEL cells assessed as inhibition of virus-induced cytopathicity; type: functional, organism-based; conditions: Human alphaherpesvirus 1, KOS
[15] = test system: Respiratory syncytial virus; experiment: Antiviral activity against Respiratory syncytial virus infected human HeLa cells assessed as inhibition of virus-induced cytopathicity by microscopy; type: functional, organism-based
[16] = test system: Human immunodeficiency virus 2; experiment: Antiviral activity against Human immunodeficiency virus type 2 (ISOLATE ROD) infected MT4 cells assessed as inhibition of virus-induced cytopathic effect after 4 days by MTT assay; type: functional, organism-based; conditions: Human immunodeficiency virus 2, ISOLATE ROD, MT4, 96 h
[17] = test system: Escherichia coli; experiment: Antimicrobial activity against Escherichia coli after 24 hr by tube dilution method; type: functional
[18] = test system: Human alphaherpesvirus 2; experiment: Antiviral activity against Human herpesvirus 2 strain G infected human HEL cells assessed as inhibition of virus-induced cytopathicity by microscopy; type: functional, organism-based; conditions: Human alphaherpesvirus 2, strain G
[19] = test system: Bacillus subtilis; experiment: Antimicrobial activity against Bacillus subtilis after 24 hr by tube dilution method; type: functional
[20] = test system: Human alphaherpesvirus 1; experiment: Antiviral activity against Human herpesvirus 1 strain KOS infected human HEL cells assessed as inhibition of virus-induced cytopathicity by microscopy by microscopy; type: functional, organism-based; conditions: Human alphaherpesvirus 1, KOS
[21] = test system: Vesicular stomatitis virus; experiment: Antiviral activity against Vesicular stomatitis virus infected human HeLa cells assessed as inhibition of virus-induced cytopathicity by microscopy; type: functional, organism-based
[22] = Cytotoxicity against Homo sapiens (human) MT4 cells after 4 days by MTT assay; type: cell-based
[23] = test system: Human immunodeficiency virus 1; experiment: Antiviral activity against Human immunodeficiency virus 1 IIIB infected MT4 cells assessed as inhibition of virus-induced cytopathic effect after 4 days by MTT assay; type: functional, organism-based; conditions: MT4, 96 h
[24] = Cytotoxicity against Homo sapiens (human) HEL cells assessed as alteration in cell morphology by microscopy; type: cell-based; conditions: for MCC: read-out: MTC
[25] = test system: Vaccinia virus; experiment: Antiviral activity against Vaccinia virus infected human HEL cells assessed as inhibition of virus-induced cytopathicity by microscopy; type: functional, organism-based; conditions: Orthopoxvirus vaccinia
[26] = test system: Human herpesvirus 3 strain Oka vaccine; experiment: Antiviral activity against Human herpesvirus 3 strain Oka vaccine OKA 07-1 (Varicella zoster virus ) infected in human HEL cells assessed as inhibition of virus-induced cytopathicity; type: functional, organism-based; conditions: Human alphaherpesvirus 3, HEL

| Structure (SMILES) | EC50 [1] [µg/mL] | MCC [2] [µg/mL] | -logMIC [3] | Activity [4] | EC50 [5] [µg/mL] | EC50 [6] [µg/mL] | EC50 [7] [µg/mL] | EC50 [8] [µg/mL] | -logMIC [9] | EC50 [10] [µg/mL] | -logMIC [11] | MCC [12] [µg/mL] | EC50 [13] [µg/mL] | EC50 [14] [µg/mL] | EC50 [15] [µg/mL] | EC50 [16] [µg/mL] | -logMIC [17] | EC50 [18] [µg/mL] | -logMIC [19] | EC50 [20] [µg/mL] | further results |
| --- | --- | --- | --- | --- | --- | --- | --- | --- | --- | --- | --- | --- | --- | --- | --- | --- | --- | --- | --- | --- | --- |
| C/C(=N\NC(=O)c1ccncc1)c1ccc([N+](=O)[O-])cc1 | > 20 | 100 | 2.36 | Toxic | > 20 | > 20 | > 20 | > 20 | 2.06 | > 20 | 2.36 | 100 | > 20 | > 100 | > 20 | > 77 | 2.36 | > 100 | 2.06 | > 100 | EC50 [21]: > 20 µg/mL; CC50 at 96 h [22]: 77 µg/mL (≈ 271 µM); EC50 [23]: > 77 µg/mL; CC50 [24]: 54 µg/mL (≈ 190 µM); MCC [24]: > 100 µg/mL; EC50 [25]: > 100 µg/mL; EC50 [26]: > 20 µg/mL |
| C/C(=N\NC(=O)c1ccncc1)c1ccc(Cl)cc1 | > 20 | 100 | 2.34 | Toxic | > 20 | > 20 | > 20 | > 20 | 2.34 | > 20 | 2.34 | 100 | > 20 | > 20 | > 20 | > 88 | 2.34 | > 20 | 2.04 | > 20 | EC50 [21]: > 20 µg/mL; CC50 at 96 h [22]: 88 µg/mL (≈ 321 µM); EC50 [23]: > 88 µg/mL; CC50 [24]: 20 µg/mL (≈ 73.1 µM); MCC [24]: 100 µg/mL; EC50 [25]: > 20 µg/mL; EC50 [26]: > 20 µg/mL |
| C/C(=N\NC(=O)c1ccncc1)c1ccc(Br)cc1 | > 20 | ≥ 20 | 2.41 | Toxic | > 20 | > 20 | > 20 | > 20 | 2.1 | > 4 | 2.41 | 20 | > 20 | > 20 | > 4 | > 43 | 2.41 | > 20 | 2.1 | > 20 | EC50 [21]: > 4 µg/mL; CC50 at 96 h [22]: 43 µg/mL (≈ 135 µM); EC50 [23]: > 43 µg/mL; CC50 [24]: 51 µg/mL (≈ 160 µM); MCC [24]: ≥ 20 µg/mL; EC50 [25]: > 20 µg/mL; EC50 [26]: > 20 µg/mL |
| C/C(=N\NC(=O)c1ccncc1)c1ccc(Cl)cc1Cl | > 20 | 100 | 2.39 | Toxic | > 20 | > 20 | > 20 | > 20 | 2.09 | > 20 | 2.69 | 100 | > 20 | > 100 | > 20 | > 38 | 2.39 | > 100 | 2.09 | > 100 | EC50 [21]: > 20 µg/mL; CC50 at 96 h [22]: 38 µg/mL (≈ 123 µM); EC50 [23]: > 38 µg/mL; CC50 [24]: 11 µg/mL (≈ 35.7 µM); MCC [24]: > 100 µg/mL; EC50 [25]: > 100 µg/mL; EC50 [26]: > 20 µg/mL |
| C/C(=N\NC(=O)c1ccncc1)c1cccc([N+](=O)[O-])c1 | > 4 | 20 | 2.36 | Toxic | > 4 | > 4 | > 20 | > 4 | 2.06 | > 4 | 2.36 | 20 | > 4 | > 20 | > 4 | > 63 | 2.36 | > 20 | 2.06 | > 20 | EC50 [21]: > 4 µg/mL; CC50 at 96 h [22]: 63 µg/mL (≈ 222 µM); EC50 [23]: > 63 µg/mL; CC50 [24]: 13 µg/mL (≈ 45.7 µM); MCC [24]: 100 µg/mL; EC50 [25]: > 20 µg/mL; EC50 [26]: > 4 µg/mL |
| O=C(NN=C1CCCCCC1)c1ccncc1 [N'-CYCLOHEPTYLIDENEISONICOTINOHYDRAZIDE] | > 100 | > 100 | 1.66 | Toxic | > 100 | > 100 | > 100 | > 100 | 1.66 | > 100 | 1.66 | > 100 | > 100 | > 100 | > 100 | > 86 | 1.36 | > 100 | 1.66 | > 100 | EC50 [21]: > 100 µg/mL; CC50 at 96 h [22]: 86 µg/mL (≈ 372 µM); EC50 [23]: > 86 µg/mL; CC50 [24]: > 100 µg/mL; MCC [24]: > 100 µg/mL; EC50 [25]: > 100 µg/mL; EC50 [26]: > 100 µg/mL |
